{"source": "paper PMC8920929", "about": "(The Journal of Biological Chemistry, 2022)", "key": {"human TRPV3": {"target": "T1, human TRPV3 (Homo sapiens, UniProt Q8NET8)", "T1 sequence (Q8NET8 1-790)": "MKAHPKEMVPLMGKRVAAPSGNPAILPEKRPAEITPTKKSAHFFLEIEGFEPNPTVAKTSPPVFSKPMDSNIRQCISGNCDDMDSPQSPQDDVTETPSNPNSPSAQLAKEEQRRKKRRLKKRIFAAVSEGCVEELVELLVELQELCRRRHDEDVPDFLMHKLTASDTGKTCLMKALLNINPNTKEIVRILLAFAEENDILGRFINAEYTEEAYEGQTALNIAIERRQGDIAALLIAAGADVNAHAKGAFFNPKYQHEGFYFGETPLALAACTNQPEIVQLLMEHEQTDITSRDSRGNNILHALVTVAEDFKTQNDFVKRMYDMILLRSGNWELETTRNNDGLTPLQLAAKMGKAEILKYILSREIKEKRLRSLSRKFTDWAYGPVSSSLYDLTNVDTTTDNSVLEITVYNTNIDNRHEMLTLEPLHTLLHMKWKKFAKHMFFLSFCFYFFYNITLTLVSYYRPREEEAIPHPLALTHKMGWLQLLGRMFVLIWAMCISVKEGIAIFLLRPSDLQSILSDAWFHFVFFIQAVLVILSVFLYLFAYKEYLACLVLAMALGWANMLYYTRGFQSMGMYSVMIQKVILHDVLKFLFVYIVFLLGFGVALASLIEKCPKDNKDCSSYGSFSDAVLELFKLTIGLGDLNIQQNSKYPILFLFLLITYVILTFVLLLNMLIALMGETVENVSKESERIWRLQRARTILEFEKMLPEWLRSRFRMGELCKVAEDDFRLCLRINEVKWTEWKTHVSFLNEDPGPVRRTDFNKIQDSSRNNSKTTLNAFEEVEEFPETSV", "test": "Inside-out single channel recordings of TRPV3", "format": "biochemical"}, "TRPV3": {"tested_on": "TRPV3", "settings": "read-out: EC50, activation of TRPV3; ref [23], [30]; cited from earlier work"}, "TRPV3-I505A": {"target": "T2, TRPV3-I505A (Homo sapiens, UniProt Q8NET8, I505A)", "T2 sequence (Q8NET8 1-790 I505A)": "T1 sequence (Q8NET8 1-790) with I505A", "test": "Whole-cell and single-channel recordings of the TRPV3-I505A mutant", "format": "cell-based"}, "TRPV3-L508A": {"target": "T3, TRPV3-L508A (Homo sapiens, UniProt Q8NET8, L508A)", "T3 sequence (Q8NET8 1-790 L508A)": "T1 sequence (Q8NET8 1-790) with L508A", "test": "Whole-cell and single-channel recordings of the TRPV3-L508A mutant", "format": "cell-based", "settings": "carvacrol 0.3-3.0 mM or 50 μM 2-APB"}, "[1]": {"settings": "+80 mV, carvacrol 300 μM or 2-APB 50 μM alone"}}, "note": "Positions count from the first letter of the chain named."}
{"smiles": "Cc1ccc(C(C)C)cc1O", "note": "[carvacrol, 5-Isopropyl-2-methylphenol]", "values": [{"measurement": "single-channel open frequency (Freq)", "setting": "human TRPV3; [1]", "value": "59.21 ± 11.32", "unit": "Hz"}, {"measurement": "single-channel open probability (Po)", "setting": "human TRPV3; [1]", "value": "0.72 ± 0.05"}, {"measurement": "unitary conductance of TRPV3 single channels", "setting": "human TRPV3; inside-out patches, -80 mV to +80 mV, carvacrol 300 μM, 2-APB 50 μM, n = 4", "value": "182.0 ± 6.4", "unit": "pS"}, {"measurement": "EC50", "setting": "TRPV3", "value": "497 ± 70", "unit": "µM"}, {"measurement": "EC50", "setting": "TRPV3-I505A", "value": "3510 ± 440", "unit": "µM"}, {"measurement": "right shift of channel activation versus WT TRPV3", "setting": "TRPV3-I505A; I505A versus WT", "value": "over 10 fold"}, {"measurement": "activation of TRPV3 I505A mutant channel", "setting": "TRPV3-I505A; carvacrol 0.3-3.0 mM or 50 μM 2-APB", "value": "weak activation of TRPV3 I505A at high concentration of 3 mM"}, {"measurement": "activation of TRPV3 L508A mutant channel", "setting": "TRPV3-L508A", "value": "loss of the mutant channel activation"}]}
